From ChEMBL document CHEMBL1201862, “PubChem BioAssay data set” (2004)
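Assay format: 96-well plates, 48-hour exposure. The concentration for 50% growth inhibition is given as GI50.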 The source made the active and inactive calls. Rule as the data show it: active = GI50 up to about 1.1 µM and inactive = higher. Non-standard residues stand in square brackets, D forms with d. Residues, ends and D or L forms follow the SMILES beside them. ξ: configuration not given here. *: point of attachment. ξHyp = O=C(O)C1CC(O)CN1; Cbz = O=C(OCc1ccccc1)*

How the values were obtained:
Assay in all cases: inhibition of tumour cell growth, NCI panel, 48 h
CCRF-CEM = tested on: CCRF-CEM
DU-145 = tested on: DU-145
EKVX = tested on: EKVX
HCT-116 = tested on: HCT-116
HOP-62 = tested on: HOP-62
HT-29 = tested on: HT-29
Malme-3M = tested on: Malme-3M
NCI-H226 = tested on: NCI-H226
NCI-H23 = tested on: NCI-H23
NCI-H460 = tested on: NCI-H460
OVCAR-4 = tested on: OVCAR-4
OVCAR-5 = tested on: OVCAR-5
OVCAR-8 = tested on: OVCAR-8
SF-295 = tested on: SF-295
SK-MEL-28 = tested on: SK-MEL-28
SNB-19 = tested on: SNB-19
SR = tested on: SR
UACC-62 = tested on: UACC-62
HOP-92 = tested on: HOP-92

Measured: GI50

NC(=O)CNC(=O)C1CC(O)CN1C(=O)OCc1ccccc1 (stereo not given) (Cbz-[ξHyp]-Gly-NH2)
inactive: CCRF-CEM > 100 µM | DU-145 > 100 µM | EKVX 41.4 µM | HCT-116 > 100 µM | HOP-62 > 100 µM | HT-29 > 100 µM | Malme-3M > 100 µM | NCI-H226 > 100 µM | NCI-H23 > 100 µM | NCI-H460 > 100 µM | OVCAR-4 > 100 µM | OVCAR-5 > 100 µM | OVCAR-8 > 100 µM | SF-295 > 100 µM | SK-MEL-28 > 100 µM | SNB-19 > 100 µM | SR > 100 µM | UACC-62 > 100 µM

COc1cc(Nc2nc3ccccc3n3cccc23)cc(OC)c1OC
inactive: CCRF-CEM > 100 µM | DU-145 > 100 µM | EKVX > 100 µM | HCT-116 > 100 µM | HOP-62 19.1 µM | HOP-92 44.2 µM | HT-29 > 100 µM | Malme-3M > 100 µM | NCI-H23 73.8 µM | NCI-H460 > 100 µM | OVCAR-5 > 100 µM | OVCAR-8 20.3 µM | SF-295 63.5 µM | SK-MEL-28 > 100 µM | SNB-19 98.2 µM | SR > 100 µM | UACC-62 > 100 µM

CC1CNc2ccccc2N=C1NN (stereo not given)
inactive: CCRF-CEM 22.7 µM | DU-145 > 100 µM | EKVX > 100 µM | HCT-116 > 100 µM | HOP-62 > 100 µM | HT-29 > 100 µM | Malme-3M > 100 µM | NCI-H226 > 100 µM | NCI-H23 > 100 µM | NCI-H460 > 100 µM | OVCAR-4 > 100 µM | OVCAR-5 > 100 µM | OVCAR-8 > 100 µM | SF-295 > 100 µM | SK-MEL-28 > 100 µM | SNB-19 > 100 µM | SR > 100 µM | UACC-62 > 100 µM

CCOC(=O)C12CCC(=O)N1N(C)c1ncccc1N2 (stereo not given)
inactive: CCRF-CEM > 100 µM | DU-145 > 100 µM | EKVX > 100 µM | HCT-116 > 100 µM | HOP-62 > 100 µM | HT-29 > 100 µM | NCI-H226 > 100 µM | NCI-H23 > 100 µM | NCI-H460 > 100 µM | OVCAR-4 > 100 µM | OVCAR-5 > 100 µM | OVCAR-8 > 100 µM | SF-295 > 100 µM | SK-MEL-28 > 100 µM | SNB-19 > 100 µM | SR > 100 µM | UACC-62 > 100 µM

CCn1c(-c2ccccc2)cs/c1=N\C(P(=O)(O)O)P(=O)(O)O
inactive: CCRF-CEM 2.05 µM | DU-145 > 100 µM | EKVX > 100 µM | HCT-116 > 100 µM | HOP-62 > 100 µM | HOP-92 > 100 µM | HT-29 > 100 µM | Malme-3M > 100 µM | NCI-H226 > 100 µM | NCI-H23 > 100 µM | NCI-H460 > 100 µM | OVCAR-5 > 100 µM | OVCAR-8 > 100 µM | SF-295 > 100 µM | SK-MEL-28 > 100 µM | SNB-19 > 100 µM | SR > 100 µM | UACC-62 > 100 µM

CC12OC3(C(O)C1O)C(C(=O)O[C@H]3CO[Si](C)(C)C(C)(C)C)C2S(=O)(=O)c1ccccc1 (stereo not given in full)
inactive: DU-145 > 100 µM | EKVX 46.9 µM | HCT-116 61.5 µM | HOP-62 > 100 µM | HOP-92 38.3 µM | HT-29 33.3 µM | NCI-H226 5.21 µM | NCI-H460 44.7 µM | OVCAR-4 34 µM | OVCAR-5 > 100 µM | OVCAR-8 29.9 µM | SF-295 43.1 µM | SK-MEL-28 56 µM | SNB-19 40 µM | SR 41.9 µM | UACC-62 16.1 µM

CC(C)C1CC[C@H](C)C[C@@H]1OC(=O)C(C(=O)O[C@H]1C[C@@H](C)CCC1C(C)C)C(O)[C@@H]1OC(C)(C)O[C@H]1C1COC(C)(C)O1 (stereo not given in full)
inactive: CCRF-CEM 15 µM | DU-145 18.8 µM | EKVX 20.8 µM | HCT-116 11.7 µM | HOP-62 19.7 µM | HT-29 13.4 µM | Malme-3M 17.1 µM | NCI-H226 23.8 µM | NCI-H23 13.4 µM | NCI-H460 15 µM | OVCAR-4 26 µM | OVCAR-5 17.3 µM | OVCAR-8 21 µM | SF-295 16.1 µM | SK-MEL-28 18.3 µM | SNB-19 16.3 µM | SR 9.62 µM | UACC-62 18.8 µM

COc1ccc(NC(=S)Nc2cc(C)cc(C)n2)cc1
inactive: CCRF-CEM > 100 µM | DU-145 > 100 µM | EKVX > 100 µM | HCT-116 > 100 µM | HOP-62 > 100 µM | HT-29 > 100 µM | Malme-3M > 100 µM | NCI-H226 > 100 µM | NCI-H460 > 100 µM | OVCAR-4 > 100 µM | OVCAR-5 > 100 µM | OVCAR-8 > 100 µM | SF-295 > 100 µM | SK-MEL-28 > 100 µM | SNB-19 > 100 µM | SR > 100 µM | UACC-62 > 100 µM

CC(C)OC(=O)NNc1c(Cl)cc(Cl)cc1Cl
inactive: CCRF-CEM 53.6 µM | DU-145 > 100 µM | EKVX 31.6 µM | HCT-116 80.9 µM | HOP-62 > 100 µM | HOP-92 23.2 µM | HT-29 > 100 µM | Malme-3M 20.4 µM | NCI-H23 > 100 µM | NCI-H460 63.7 µM | OVCAR-5 > 100 µM | OVCAR-8 > 100 µM | SF-295 77.6 µM | SK-MEL-28 > 100 µM | SNB-19 > 100 µM | SR 55.3 µM | UACC-62 56.9 µM

CC(=O)CC(=O)N1CCSC1=S
inactive: CCRF-CEM > 10 µM | DU-145 > 10 µM | EKVX > 10 µM | HCT-116 > 10 µM | HOP-62 > 10 µM | HOP-92 > 10 µM | HT-29 > 10 µM | Malme-3M > 10 µM | NCI-H226 > 10 µM | NCI-H23 > 10 µM | NCI-H460 > 10 µM | OVCAR-5 > 10 µM | OVCAR-8 > 10 µM | SF-295 > 10 µM | SK-MEL-28 > 10 µM | SNB-19 > 10 µM | SR > 10 µM | UACC-62 > 10 µM

COC(=O)C1=Nc2c(C)nn(-c3ccccc3)c2N=C(c2ccc(C)cc2)C1
inactive: DU-145 > 10 µM | HCT-116 > 10 µM | HOP-62 > 10 µM | HOP-92 > 10 µM | HT-29 > 10 µM | Malme-3M > 10 µM | NCI-H23 > 10 µM | OVCAR-4 > 10 µM | OVCAR-8 > 10 µM | SF-295 > 10 µM | SK-MEL-28 > 10 µM | SNB-19 > 10 µM | SR > 10 µM | UACC-62 > 10 µM

S=c1nc(Nc2ccccc2)c2c3c(sc2[nH]1)CCCC3
inactive: DU-145 > 100 µM | EKVX 2.32 µM | HCT-116 > 100 µM | HOP-62 > 100 µM | HT-29 > 100 µM | Malme-3M > 100 µM | NCI-H226 > 100 µM | NCI-H23 > 100 µM | NCI-H460 > 100 µM | OVCAR-4 > 100 µM | OVCAR-5 > 100 µM | OVCAR-8 > 100 µM | SF-295 > 100 µM | SK-MEL-28 > 100 µM | SNB-19 > 100 µM | SR 8.67 µM | UACC-62 > 100 µM
